Measured values: paper PMC9743095 (Journal of Medicinal Chemistry, 2022)
Like-named read-outs stand apart in the source and are kept apart here.

How the values were obtained:
Format in all cases: cell-based
[1] = system: CEM cell line; assay: ATP viability assay; settings: for CC50: Homo sapiens, CCRF-CEM, read-out: LC50
Experimental: (§1) HL-60 (ATCC CCL-240), K562 (ATCC CCL-243), CCRF-CEM (ATCC CRM-CCL-119), and RL (ATCC CRL-2261) leukemia cell lines were obtained from the American Type Culture Collection (ATCC), Middlesex. HL-60 and K562 cell lines are deoxynucleotidyl transferase-negative (TdT^–ve), whereas CCRF-CEM cell line is TdT^+ve. They were cultured in RPMI-1640 medium (Sigma-Aldrich, U.K.), which were supplemented with 10% fetal bovine serum (FBS) (PAA Laboratories), 1% amphotericin B (5.5 mL), and 1% penicillin/streptomycin (5.5 mL) (PAA Laboratories) and grown in flasks at 37 °C in an incubator with 5% CO2. For the studies with inhibitors, the cells were treated with 10 μM nitrobenzylthioinosine (NBTI, hENT inhibitor) or 1 μM EHNA (EHNA hydrochloride) or A-134974 (A-134974 dihydrochloride hydrate) and left for 5 min before adding the drug. The cells were then incubated for 2 h at 37 °C with 5% CO2.
(§2) The amount of ATP was used as a measurement of cell number and cell viability. ATP ViaLightTM plus assay kit (Lonza: Product No. LT07-121) to detect ATP in cells treated in luminescence compatible 96-well plates (initial concentration of cells was 1 × 10^4 cells/well) with Cordycepin and ProTides at concentrations of 0, 0.1, 0.5, 1, 5, and 10 μM, followed by incubation for 72 h at 37 °C in an incubator with 5% CO2. For inhibitor studies, 10 μM NBTI or 1 μM EHNA or A-134974 was added and left for 5 min before adding the drugs. After incubation, 50 μL of cell lysis reagent was added to the 96-well plates to release the intracellular ATP, followed by 100 μL of ATP monitoring reagent (AMR). The luminescent values of each well were determined using FLUOstar OPTIMA microplate reader (BMG Labtech), which converted ATP into light using luciferase enzyme. Therefore, the amount of luminescence produced was directly proportional to the amount of ATP.

[2] = system: HL-60 cell line; assay: ATP viability assay; settings: Homo sapiens
Experimental: as §1, §2

[3] = system: CRL cell line; assay: ATP viability assay; settings: for CC50: Homo sapiens, read-out: LC50
Experimental: as §1, §2

[4] = system: K562 cell line; assay: ATP viability assay; settings: Homo sapiens
Experimental: as §1, §2

[5] = system: KG-1; assay: cells; settings: Homo sapiens, KG-1, 72 h, read-out: LC50
Experimental: (§3) The assay was contracted and carried out by WuXi AppTec (Shanghai) Co., Ltd. The tumor cell lines CCRF-CEM, HL-60, KG-1, MOLT-4, K562, MV4-11, THP-1, HEL92.1.7, NCI-H929, RPMI-8226, Jurkat, Z138, RL, HS445, HepG2, MCF-7, Bx-PC-3, HT29, MIA PaCa-2, and SW620 were seeded at cell densities of […] 10^3 cells/well in a 96-well plate the day before drug incubation. Then, the plates were incubated for 72 h with the different concentrations of compound to be tested. After the incubation period, 50 μL of MTS was added and the tumor cells were incubated for 4 h at 37 °C. The data were read and collected by a Spectra Max 340 absorbance microplate reader. The compounds were tested in duplicate with nine serial concentrations (3.16-fold titrations with 198 μM as the highest concentration), and the data were analyzed by XLfit software.

[6] = system: Z138; assay: cells; settings: for CC50: Homo sapiens, Z-138, 72 h, read-out: LC50; for MI%: Z138, maximum inhibitory effect over concentration range
Experimental: as §3

[7] = system: MOLT-4; assay: cells; settings: Homo sapiens; for Emax: read-out: MI%; for CC50: read-out: LC50
Experimental: as §3

[8] = system: HEL92.1.7; assay: cells; settings: for MI%: HEL92.1.7, maximum inhibitory effect over concentration range; for CC50: Homo sapiens, HEL 92.1.7, 72 h, read-out: LC50
Experimental: as §3

[9] = system: HepG2; assay: cells; settings: Homo sapiens; for Emax: read-out: MI%; for CC50: read-out: LC50
Experimental: as §3

[10] = system: MCF-7; assay: cells; settings: Homo sapiens, MCF7, 72 h; for CC50: read-out: LC50; for Emax: read-out: MI%
Experimental: as §3

[11] = system: RPMI-8226; assay: cells; settings: for CC50: Homo sapiens, RPMI-8226, 72 h, read-out: LC50; for MI%: RPMI-8226, maximum inhibitory effect over concentration range
Experimental: as §3

[12] = system: MV4-11; assay: cells; settings: for CC50: Homo sapiens, MV4-11, 72 h, read-out: LC50; for MI%: MV4-11, maximum inhibitory effect over concentration range
Experimental: as §3

[13] = system: SW620; assay: cells; settings: for CC50: Homo sapiens, SW-620, 72 h, read-out: LC50; for MI%: SW620, maximum inhibitory effect over concentration range
Experimental: as §3

[14] = system: RL; assay: cells; settings: for CC50: Homo sapiens, 72 h, read-out: LC50; for MI%: maximum inhibitory effect over concentration range
Experimental: as §3

[15] = system: HS445; assay: cells; settings: for MI%: HS445, maximum inhibitory effect over concentration range; for CC50: Homo sapiens, Hs 445, 72 h, read-out: LC50
Experimental: as §3

[16] = system: BxPC-3; assay: cells; settings: for MI%: BxPC-3, maximum inhibitory effect over concentration range; for CC50: Homo sapiens, BXPC-3, 72 h, read-out: LC50
Experimental: as §3

[17] = system: CCRF-CEM; assay: cells; settings: Homo sapiens, 72 h; for Emax: read-out: MI%; for CC50: read-out: LC50
Experimental: as §3

[18] = system: HT29; assay: cells; settings: for MI%: HT29, maximum inhibitory effect over concentration range; for CC50: Homo sapiens, HT-29, 72 h, read-out: lC50
Experimental: as §3

[19] = system: THP-1; assay: cells; settings: for CC50: Homo sapiens, THP-1, 72 h, read-out: LC50; for MI%: THP-1, maximum inhibitory effect over concentration range
Experimental: as §3

[20] = system: HL-60; assay: cells; settings: Homo sapiens; for Emax: read-out: MI%; for CC50: read-out: LC50
Experimental: as §3

Row | Structure (SMILES) | CC50 ([1]; 72 h) [µM] | CC50 ([3]; 72 h) [µM] | CC50 [5] [µM] | CC50 [6] [µM] | MI% [6] [%] | CC50 ([7]; MOLT-4, 72 h) [µM] | MI% [8] [%] | CC50 [8] [µM] | CC50 ([9]; HepG2, 72 h) [µM] | CC50 [10] [µM] | CC50 [11] [µM] | MI% [11] [%] | CC50 [12] [µM] | MI% [12] [%] | CC50 [13] [µM] | MI% [13] [%] | CC50 [14] [µM] | MI% [14] [%] | MI% [15] [%] | CC50 [15] [µM] | also measured
1 | Nc1ncnc2c1ncn2[C@@H]1O[C@H](CO)C[C@H]1O [3′-dA, 3′-Deoxyadenosine, reference compound] | 19.5 | 24.5 | 70.8 | 12.2 | 95 | 152 | 88 | 68.9 | 142 | 34.2 | > 198 | 1 | > 198 | 1 | > 198 | 10 | > 198 | 17 | 2 | > 198 | improvement of LC50 on inhibition of ADA with EHNA ([1]; CEM): 16 fold; CC50 [1]: 11.5 µM; CC50 ([2]; HL-60, 72 h, read-out: LC50): 11.4 µM; improvement of LC50 on inhibition of ADA with EHNA ([3]; CRL): 2 fold; CC50 [3]: 7.3 µM; CC50 ([4]; K562, 72 h, read-out: LC50): 10.9 µM; Emax ([7]; 72 h, MOLT-4, maximum inhibitory effect over concentration range): 52%; Emax ([9]; 72 h, HepG2, maximum inhibitory effect over concentration range): 66%; Emax ([10]; MCF-7, maximum inhibitory effect over concentration range): 78%; MI% [16]: 22%; CC50 [16]: > 198 µM; Emax ([17]; maximum inhibitory effect over concentration range): 12%; CC50 [17]: > 198 µM; MI% [18]: 44%; CC50 [18]: > 198 µM; CC50 [19]: > 198 µM; MI% [19]: –3%; Emax ([20]; 72 h, HL-60, maximum inhibitory effect over concentration range): 88%; CC50 ([20]; HL-60, 72 h): 76.8 µM
2 | C[C@H](NP(=O)(OC[C@@H]1C[C@@H](O)[C@H](n2cnc3c(N)ncnc32)O1)Oc1ccccc1)C(=O)OCc1ccccc1 (stereo partly drawn) [Compound 7a, (Rp)- and (Sp)-3′-Deoxyadenosine 5′-O-phenyl-(benzoxy-L-alaninyl)-phosphate] | 0.87 | 2.1 | 17.4 | 27 | 95 | 0.51 | 100 | 8.07 | 18.7 | 3.07 | 14.7 | 96 | 2.1 | 99 | 24.9 | 85 | 3 | 93 | 98 | 30.5 | LC50 change on ADA inhibition by EHNA ([1]; CEM): did not lead to any LC50 changes; CC50 [1]: 1.4 µM; CC50 ([2]; HL-60, 72 h, read-out: LC50): 4.6 µM; CC50 [3]: 3.6 µM; CC50 ([4]; K562, 72 h, read-out: LC50): 2.4 µM; Emax ([7]; MOLT-4, 72 h): 98%; Emax ([9]; HepG2, 72 h): 76%; Emax [10]: 94%; MI% [16]: 81%; CC50 [16]: 23.6 µM; CC50 [17]: 2.36 µM; Emax [17]: 100%; MI% [18]: 93%; CC50 [18]: 13.4 µM; CC50 [19]: 65.5 µM; MI% [19]: 74%; CC50 ([20]; HL-60, 72 h): 17.8 µM; Emax ([20]; HL-60, 72 h): 97%
3 | CCOC(=O)CCc1ccccc1OP(=O)(N[C@@H](C)C(=O)OCc1ccccc1)OC[C@@H]1C[C@@H](O)[C@H](n2cnc3c(N)ncnc32)O1 (stereo partly shown) [Compound 7e] | 4.3 | 3.4 | 102 | 68.2 | 76 | 12.6 | 99 | 14.5 | 96.1 | 15.8 | 31.1 | 106 | 3.27 | 100 | 43.4 | 90 | 7.26 | 90 | 92 | 42.7 | CC50 ([2]; HL-60, Table S2, no inhibitors, 72 h, read-out: LC50 (the source's name)): 8.3 µM; CC50 ([4]; K562, Table S2, no inhibitors, 72 h, read-out: LC50 (the source's name)): 6.3 µM; Emax ([7]; MOLT-4, 72 h): 97%; Emax ([9]; HepG2, 72 h): 59%; Emax [10]: 78%; MI% [16]: 78%; CC50 [16]: 60.9 µM; CC50 [17]: 40.1 µM; Emax [17]: 90%; MI% [18]: 89%; CC50 [18]: 25.2 µM; CC50 [19]: 36.7 µM; MI% [19]: 100%; CC50 ([20]; HL-60, 72 h): 78.5 µM; Emax ([20]; HL-60, 72 h): 74%
